Experimental data as given in patent US20240368135A1 (VERTEX PHARMACEUTICALS INCORPORATED, priority 2021, published 2024).
Read-outs that look alike come from different tables or passages of the source.

Target: human NaV 1.8 (Homo sapiens, UniProt Q9Y5Y9)
Experiment: E-VIPR assay detecting and measuring NaV inhibition properties
Type: cell-based
Conditions: HEK cells expressing truncated human NaV 1.8
How it was run: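 HEK cells expressing truncated, fully active human NaV1.8, with KIR2.1 BacMam co-transduction, were loaded with CC2-DMPE/DiSBAC6(3) voltage-sensing dyes for 20 min at room temperature. Compounds were tested in 11-point 3-fold dilutions (300 nM top final), optionally with 25% human serum, under electrical stimulation with FRET read-out.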

[1] = no human serum, read-out: IC50 in the E-VIPR Assay
[2] = in the presence of human serum (compound numbers followed by *), read-out: IC50 in the E-VIPR Assay, performed in the presence of human serum

human NaV 1.8, sequence (Q9Y5Y9 126-399 limits assumed): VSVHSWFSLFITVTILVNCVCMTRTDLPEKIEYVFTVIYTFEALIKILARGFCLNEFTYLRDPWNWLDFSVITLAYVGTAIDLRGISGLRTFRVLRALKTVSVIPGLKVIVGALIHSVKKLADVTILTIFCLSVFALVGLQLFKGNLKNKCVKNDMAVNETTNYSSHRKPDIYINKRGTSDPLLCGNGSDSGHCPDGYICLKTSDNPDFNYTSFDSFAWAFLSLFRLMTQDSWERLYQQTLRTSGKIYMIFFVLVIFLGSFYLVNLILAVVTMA
human NaV 1.8, sequence (Q9Y5Y9 660-890 limits assumed): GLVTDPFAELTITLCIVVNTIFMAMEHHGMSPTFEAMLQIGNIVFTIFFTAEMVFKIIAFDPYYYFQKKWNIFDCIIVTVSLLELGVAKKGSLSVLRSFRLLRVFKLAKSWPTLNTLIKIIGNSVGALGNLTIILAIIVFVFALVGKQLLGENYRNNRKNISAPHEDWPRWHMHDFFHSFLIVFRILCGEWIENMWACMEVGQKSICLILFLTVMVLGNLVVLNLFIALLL
human NaV 1.8, sequence (Q9Y5Y9 1148-1722 limits assumed): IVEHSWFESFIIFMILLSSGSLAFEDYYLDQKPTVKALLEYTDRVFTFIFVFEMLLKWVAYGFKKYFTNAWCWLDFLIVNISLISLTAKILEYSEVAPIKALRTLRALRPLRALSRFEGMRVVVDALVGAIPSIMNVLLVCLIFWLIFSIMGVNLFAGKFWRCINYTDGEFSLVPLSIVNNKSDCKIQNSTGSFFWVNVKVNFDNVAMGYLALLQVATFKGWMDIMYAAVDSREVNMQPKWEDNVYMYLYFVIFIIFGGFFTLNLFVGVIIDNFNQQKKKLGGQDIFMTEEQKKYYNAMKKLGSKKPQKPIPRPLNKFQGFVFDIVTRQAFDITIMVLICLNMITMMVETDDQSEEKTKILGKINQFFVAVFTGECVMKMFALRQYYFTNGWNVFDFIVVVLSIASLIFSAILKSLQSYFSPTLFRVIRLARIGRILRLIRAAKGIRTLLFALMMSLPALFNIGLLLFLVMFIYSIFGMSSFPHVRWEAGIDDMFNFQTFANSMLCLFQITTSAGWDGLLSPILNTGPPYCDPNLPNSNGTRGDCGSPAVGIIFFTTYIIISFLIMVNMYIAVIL

| IC50 [1] | IC50 [2] | Compound |
| --- | --- | --- |
| 10 to 100 nM | – | CNC(=O)COc1c([C@H]2[C@H](C(=O)Nc3cn(C(F)F)nc3C)O[C@@](C)(C(F)(F)F)[C@H]2C)ccc(F)c1F [Compound 607, (2R,3S,4S,5R)-3-(3,4-difluoro-2-(2-(methylamino)-2-oxoethoxy)phenyl)-N-(1-(difluoromethyl)-3-methyl-1H-pyrazol-4-yl)-4,5-dimethyl-5-(trifluoromethyl)tetrahydrofuran-2-carboxamide] |
| 10 to 100 nM | – | COc1c([C@H]2[C@H](C(=O)Nc3ccc4nc(C(=O)N(C)C)cn4c3)O[C@@](C)(C(F)(F)F)[C@H]2C)ccc(F)c1F [Compound 261, 6-((2R,3S,4S,5R)-3-(3,4-difluoro-2-methoxyphenyl)-4,5-dimethyl-5-(trifluoromethyl)tetrahydrofuran-2-carboxamido)-N,N-dimethylimidazo[1,2-a]pyridine-2-carboxamide] |
| 10 to 100 nM | – | Cc1nn(C(F)F)cc1NC(=O)[C@@H]1O[C@@](C)(C(F)(F)F)[C@@H](C)[C@H]1c1ccc(F)c(F)c1OCCN1CCOCC1 [Compound 591, (2R,3S,4S,5R)-3-(3,4-difluoro-2-(2-morpholinoethoxy)phenyl)-N-(1-(difluoromethyl)-3-methyl-1H-pyrazol-4-yl)-4,5-dimethyl-5-(trifluoromethyl)tetrahydrofuran-2-carboxamide] |
| < 10 nM | – | COc1c(C2C(C(=O)Nc3ccnc(S(C)(=N)=O)c3)OC(C)(C(F)(F)F)C2C)ccc(F)c1F (single isomer, unassigned) [Compound 55, 3-(3,4-difluoro-2-methoxy-phenyl)-4,5-dimethyl-N-[2-(methylsulfonimidoyl)-4-pyridyl]-5-(trifluoromethyl)tetrahydrofuran-2-carboxamide] |
| – | 100 to 1000 nM | CCOc1c(C2CC(C)(C(F)(F)F)OC2C(=O)Nc2ccn3c(OC)nnc3c2)ccc(F)c1F (stereo not shown) [Compound 708] |
| 10 to 100 nM | – | Cc1nocc1NC(=O)[C@@H]1O[C@@](C)(C(F)(F)F)[C@@H](C)[C@H]1c1ccc(F)c(F)c1OCCN1CC2(COC2)C1 [Compound 619, (2R,3S,4S,5R)-3-(2-(2-(2-oxa-6-azaspiro[3.3]heptan-6-yl)ethoxy)-3,4-difluorophenyl)-4,5-dimethyl-N-(3-methylisoxazol-4-yl)-5-(trifluoromethyl)tetrahydrofuran-2-carboxamide] |
| – | ≥ 1000 nM | COc1c(C2C(C(=O)Nc3ccnc(C(O)C(C)O)c3)OC(C)(C(F)(F)F)C2C)ccc(F)c1C (single isomer, unassigned) [Compound 146] |
| 10 to 100 nM | – | COc1c([C@@H]2C[C@](C)(C(F)(F)F)O[C@H]2C(=O)Nc2ccnc(C(C)(O)CO)c2)ccc(F)c1F (single isomer, unassigned) [Compound 701] |
| < 10 nM | – | COc1c([C@H]2[C@H](C(=O)Nc3cc(C(O)CO)ncc3F)O[C@@](C)(C(F)(F)F)[C@H]2C)ccc(F)c1F (single isomer, unassigned) [Compound 199, rel-(2R*,3S*,4S*,5R*)-3-(3,4-difluoro-2-methoxyphenyl)-N-(2-(-1,2-dihydroxyethyl)-5-fluoropyridin-4-yl)-4,5-dimethyl-5-(trifluoromethyl)tetrahydrofuran-2-carboxamide] |
| – | 100 to 1000 nM | COc1c([C@@H]2C[C@](C)(C(F)(F)F)O[C@H]2C(=O)Nc2cc(C(O)CO)ncc2F)ccc(F)c1F (single isomer, unassigned) [Compound 689] |
| ≥ 1000 nM | – | COCC(NC(C)C)c1ccc(NC(=O)[C@@H]2O[C@@](C)(C(F)(F)F)[C@@H](C)[C@H]2c2ccc(F)c(F)c2OC)cn1 (single isomer, unassigned) [Compound 420, rel-(2R*,3S*,4S*,5R*)-3-(3,4-difluoro-2-methoxyphenyl)-N-(6-(1-(isopropylamino)-2-methoxyethyl)pyridin-3-yl)-4,5-dimethyl-5-(trifluoromethyl)-tetrahydrofuran-2-carboxamide] |
| < 10 nM | – | COc1c([C@H]2[C@H](C(=O)Nc3ccnc(CCO)c3)O[C@@](C)(C(F)(F)F)[C@H]2C)ccc(F)c1F [Compound 385, (2R,3S,4S,5R)-3-(3,4-difluoro-2-methoxyphenyl)-N-(2-(2-hydroxyethyl)pyridin-4-yl)-4,5-dimethyl-5-(trifluoromethyl)tetrahydrofuran-2-carboxamide] |
| < 10 nM | – | COc1c([C@H]2[C@H](C(=O)Nc3ccnc(N4C(=O)CN(C)C[C@H]4CO)c3)O[C@@](C)(C(F)(F)F)[C@H]2C)ccc(F)c1F [Compound 512, (2R,3S,4S,5R)-3-(3,4-difluoro-2-methoxyphenyl)-N-(2-((S)-2-(hydroxymethyl)-4-methyl-6-oxopiperazin-1-yl)pyridin-4-yl)-4,5-dimethyl-5-(trifluoromethyl)tetrahydrofuran-2-carboxamide] |
| < 10 nM | – | COCCOc1c([C@H]2[C@H](C(=O)Nc3ccnc(CCO)c3)O[C@@](C)(C(F)(F)F)[C@H]2C)ccc(F)c1F [Compound 648, (2R,3S,4S,5R)-3-[3,4-difluoro-2-(2-methoxyethoxy)phenyl]-N-[2-(2-hydroxyethyl)-4-pyridyl]-4,5-dimethyl-5-(trifluoromethyl)tetrahydrofuran-2-carboxamide] |
| < 10 nM | – | COCCOc1c([C@H]2[C@H](C(=O)Nc3ccnc(C(O)CO)c3)O[C@@](C)(C(F)(F)F)[C@H]2C)ccc(F)c1F (stereo partly drawn) [Compound 647, (2R,3S,4S,5R)-3-[3,4-difluoro-2-(2-methoxyethoxy)phenyl]-N-[2-(1,2-dihydroxyethyl)-4-pyridyl]-4,5-dimethyl-5-(trifluoromethyl)tetrahydrofuran-2-carboxamide] |
| 10 to 100 nM | – | COC[C@@H](O)Cn1cc(NC(=O)[C@@H]2O[C@@](C)(C(F)(F)F)[C@@H](C)[C@H]2c2ccc(F)c(F)c2OC)c(C)n1 [Compound 245, (2R,3S,4S,5R)-3-(3,4-difluoro-2-methoxyphenyl)-N-(1-((S)-2-hydroxy-3-methoxypropyl)-3-methyl-1H-pyrazol-4-yl)-4,5-dimethyl-5-(trifluoromethyl)tetrahydrofuran-2-carboxamide] |
| 100 to 1000 nM | – | COc1c([C@@H]2[C@@H](C(=O)Nc3ccnc(S(C)(=N)=O)c3)O[C@](C)(C(F)(F)F)[C@@H]2C)ccc(F)c1C (relative stereo) [Compound 150, rel-(2S,3R,4R,5S)-3-(4-fluoro-2-methoxy-3-methylphenyl)-4,5-dimethyl-N-(2-(S-methylsulfonimidoyl)pyridin-4-yl)-5-(trifluoromethyl)tetrahydrofuran-2-carboxamide] |
| 10 to 100 nM | – | COc1c([C@H]2[C@H](C(=O)Nc3ccc(CCS(C)(=O)=O)nc3)O[C@@](C)(C(F)(F)F)[C@H]2C)ccc(F)c1F [Compound 194, (2R,3S,4S,5R)-3-(3,4-difluoro-2-methoxyphenyl)-4,5-dimethyl-N-(6-(2-(methylsuflonyl)ethyl)pyridin-3-yl)-5-(trifluoromethyl)tetrahydrofuran-2-carboxamide] |
| 100 to 1000 nM | – | C[C@H]1[C@@H](c2ccc(F)c(F)c2OCCO)[C@H](C(=O)Nc2ccon2)O[C@@]1(C)C(F)(F)F [Compound 556, (2R,3S,4S,5R)-3-(3,4-difluoro-2-(2-hydroxyethoxy)phenyl)-N-(isoxazol-3-yl)-4,5-dimethyl-5-(trifluoromethyl)tetrahydrofuran-2-carboxamide] |
